According to PubChem BioAssay AID248 (DTP/NCI, 2004):
Values joined by “and” are separate entries in the source; they are usually repeats but may differ in a detail not shown here. Equal entries are not always repeated. Toxic doses and inconclusive results are not listed. No stated cut-off is given here; in the data, active means T/C of 150% or more; inactive means T/C below 125%.

Tested on: L1210 leukemia ip in BDF1 mice, survival T/C
Test: NCI In Vivo Anticancer Drug Screen. Data for tumor model L1210 Leukemia (intraperitoneal) in B6D2F1 (BDF1) mice
Settings: endpoint: mean survival time, higher = longer survival
Procedure, shortened: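 Value reflects the ratio of survival in compound-treated mice to survival in vehicle-treated controls, with both groups carrying the same transplanted tumor.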

[1] = dose: 100.0 mg/kg/injection, schedule: Q04DX003 (ip), vehicle: saline with Tween-80
[2] = dose: 200.0 mg/kg/injection, schedule: Q04DX003 (ip), vehicle: saline with Tween-80
[3] = dose: 400.0 mg/kg/injection, schedule: Q04DX003 (ip), vehicle: saline with Tween-80
[4] = dose: 100.0 mg/kg/injection, schedule: Q01DX001 (ip), vehicle: saline
[5] = dose: 100.0 mg/kg/injection, schedule: Q01DX009 (ip), vehicle: saline with Tween-80
[6] = dose: 100.0 mg/kg/injection, schedule: Q04DX002 (ip), vehicle: Klucel (hydroxypropylcellulose) (HPC)
[7] = dose: 200.0 mg/kg/injection, schedule: Q04DX002 (ip), vehicle: Klucel (hydroxypropylcellulose) (HPC)
[8] = dose: 100.0 mg/kg/injection, schedule: Q04DX003 (ip), vehicle: Klucel (hydroxypropylcellulose) (HPC)
[9] = dose: 25.0 mg/kg/injection, schedule: Q04DX003 (ip), vehicle: saline
[10] = dose: 50.0 mg/kg/injection, schedule: Q04DX003 (ip), vehicle: saline
[11] = dose: 400.0 mg/kg/injection, schedule: Q04DX002 (ip), vehicle: Klucel (hydroxypropylcellulose) (HPC)
[12] = dose: 400.0 mg/kg/injection, schedule: Q01DX009 (ip), vehicle: saline with Tween-80
[13] = dose: 100.0 mg/kg/injection, schedule: Q01DX001 (ip), vehicle: carboxymethylcellulose (CMC)
[14] = dose: 400.0 mg/kg/injection, schedule: Q01DX001 (ip), vehicle: carboxymethylcellulose (CMC)
[15] = dose: 50.0 mg/kg/injection, schedule: Q01DX001 (ip), vehicle: saline

Measured: T/C

COc1cc(N)c2ncccc2c1
inactive: dose: 15.0 mg/kg/injection, schedule: Q01DX001 (ip), vehicle: saline 98 % of control | dose: 30.0 mg/kg/injection, schedule: Q01DX001 (ip), vehicle: saline 97 % of control | dose: 75.0 mg/kg/injection, schedule: Q01DX001 (ip), vehicle: carboxymethylcellulose (CMC) 96 % of control

[Se]=P(c1ccccc1)(c1ccccc1)c1ccccc1
inactive: dose: 100.0 mg/kg/injection, schedule: Q01DX009 (ip), vehicle: Klucel (hydroxypropylcellulose) (HPC) 103 % of control | dose: 200.0 mg/kg/injection, schedule: Q01DX009 (ip), vehicle: Klucel (hydroxypropylcellulose) (HPC) 90 % of control

CCCCN(CCCC)CCC(=O)OCC
inactive: [1] 94 % of control | [2] 101 % of control | [3] 89 % of control

CCNC(=O)CCCC(=O)OC
inactive: [4] 94 % of control | dose: 200.0 mg/kg/injection, schedule: Q01DX001 (ip), vehicle: saline 103 % of control | dose: 400.0 mg/kg/injection, schedule: Q01DX001 (ip), vehicle: saline 97 % of control

CC1=NN(P(=O)(c2ccccc2)c2ccccc2)/C(=C\c2ccccc2)O1
inactive: dose: 100.0 mg/kg/injection, schedule: Q01DX001 (ip), vehicle: steriod suspending solution 90 % of control | dose: 200.0 mg/kg/injection, schedule: Q01DX001 (ip), vehicle: steriod suspending solution 104 % of control | dose: 400.0 mg/kg/injection, schedule: Q01DX001 (ip), vehicle: steriod suspending solution 90 % of control

CC(CO)(CI)[n+]1ccccc1 (centres undefined)
inactive: dose: 25.0 mg/kg/injection, schedule: Q01DX009 (ip), vehicle: saline with Tween-80 100 % of control | dose: 50.0 mg/kg/injection, schedule: Q01DX009 (ip), vehicle: saline with Tween-80 94 % of control | [5] 103 % of control | [1] 106 % of control

O=C(c1ccccn1)C(O)c1ccccn1 (centres undefined)
inactive: dose: 50.0 mg/kg/injection, schedule: Q04DX002 (ip), vehicle: Klucel (hydroxypropylcellulose) (HPC) 96 % of control | [6] 99 % of control | [7] 96 % of control

C=C(C)C(=O)Nc1ccccc1
inactive: [8] 86 % of control | dose: 200.0 mg/kg/injection, schedule: Q04DX003 (ip), vehicle: Klucel (hydroxypropylcellulose) (HPC) 89 % of control

C#CC(C)(C)OCC1CO1 (centres undefined)
inactive: dose: 25.0 mg/kg/injection, schedule: Q01DX009 (ip), vehicle: saline 93 % of control | [9] 101 % of control | dose: 50.0 mg/kg/injection, schedule: Q01DX009 (ip), vehicle: saline 90 % of control | [10] 113 % of control | dose: 100.0 mg/kg/injection, schedule: Q01DX009 (ip), vehicle: saline 102 % of control | dose: 100.0 mg/kg/injection, schedule: Q04DX003 (ip), vehicle: saline 108 % of control | dose: 200.0 mg/kg/injection, schedule: Q01DX009 (ip), vehicle: saline 108 % of control | dose: 200.0 mg/kg/injection, schedule: Q04DX003 (ip), vehicle: saline 95 % of control | dose: 400.0 mg/kg/injection, schedule: Q01DX009 (ip), vehicle: saline 93 % of control | dose: 400.0 mg/kg/injection, schedule: Q04DX003 (ip), vehicle: saline 106 % of control

CN1c2ccc(Br)c[c]2[Sn]([CH3])([CH3])[c]2cc(Br)ccc21
inactive: dose: 100.0 mg/kg/injection, schedule: Q01DX001 (ip), vehicle: other 96 % of control | dose: 200.0 mg/kg/injection, schedule: Q01DX001 (ip), vehicle: other 97 % of control | dose: 400.0 mg/kg/injection, schedule: Q01DX001 (ip), vehicle: other 92 % of control

CC1(O)c2ccccc2-c2nc3ccccc3nc21 (centres undefined)
inactive: dose: 50.0 mg/kg/injection, schedule: Q01DX009 (ip), vehicle: saline sonified 89 % of control | dose: 100.0 mg/kg/injection, schedule: Q01DX009 (ip), vehicle: saline sonified 102 % of control | dose: 100.0 mg/kg/injection, schedule: Q04DX003 (ip), vehicle: saline sonified 94 % of control | dose: 200.0 mg/kg/injection, schedule: Q01DX009 (ip), vehicle: saline sonified 102 % of control | dose: 200.0 mg/kg/injection, schedule: Q04DX003 (ip), vehicle: saline sonified 110 % of control | dose: 400.0 mg/kg/injection, schedule: Q04DX003 (ip), vehicle: saline sonified 87 % of control

CCCCOc1ccc(Nc2c3ccccc3nc3ccccc23)cc1
inactive: [8] 123 % of control

COC(=O)C1=C(\O)CCCC/C=C\1C(=O)OC
inactive: [6] 87 % of control | [7] 97 % of control | [11] 107 % of control

O=Nc1ccc(O)cc1I
inactive: [6] 100 % of control | [7] 97 % of control | [11] 93 % of control

CC1(C)OC2COC3(COC(C)(C)O3)C(OS(C)(=O)=O)C2O1 (centres undefined)
inactive: [1] 92 % of control | [2] 95 % of control | [3] 95 % of control

O=C(Nc1nccs1)c1ccc(C(=O)Nc2nccs2)cc1
inactive: dose: 15.0 mg/kg/injection, schedule: Q01DX Z (ip), vehicle: carboxymethylcellulose (CMC) 93 % of control | dose: 30.0 mg/kg/injection, schedule: Q01DX Z (ip), vehicle: carboxymethylcellulose (CMC) 100 % of control | dose: 60.0 mg/kg/injection, schedule: Q01DX Z (ip), vehicle: carboxymethylcellulose (CMC) 100 % of control | dose: 120.0 mg/kg/injection, schedule: Q01DX Z (ip), vehicle: carboxymethylcellulose (CMC) 100 % of control and 90 % of control | dose: 180.0 mg/kg/injection, schedule: Q01DX Z (ip), vehicle: carboxymethylcellulose (CMC) 96 % of control | dose: 270.0 mg/kg/injection, schedule: Q01DX Z (ip), vehicle: carboxymethylcellulose (CMC) 96 % of control | dose: 400.0 mg/kg/injection, schedule: Q01DX Z (ip), vehicle: carboxymethylcellulose (CMC) 95 % of control

OC(CC1(O)C(F)(F)C(F)(F)C1(F)F)c1ccccc1 (centres undefined)
inactive: [5] 97 % of control | [12] 100 % of control

COc1cc(/C=N/NC(N)=S)cc(OC)c1OC
inactive: [5] 93 % of control | [1] 108 % of control | dose: 200.0 mg/kg/injection, schedule: Q01DX009 (ip), vehicle: saline with Tween-80 98 % of control | [2] 110 % of control | [12] 104 % of control | [3] 106 % of control

Nc1cc(Cl)c(Cl)c(Cl)c1
inactive: dose: 88.8 mg/kg/injection, schedule: Q01DX001 (ip), vehicle: carboxymethylcellulose (CMC) 97 % of control and 100 % of control | [13] 91 % of control | dose: 133.4 mg/kg/injection, schedule: Q01DX001 (ip), vehicle: carboxymethylcellulose (CMC) 94 % of control and 100 % of control | dose: 300.0 mg/kg/injection, schedule: Q01DX001 (ip), vehicle: carboxymethylcellulose (CMC) 97 % of control and 91 % of control | [14] 91 % of control

O=C(Cl)C1C2C=CC(C2)C1C(=O)Cl (centres undefined)
inactive: [15] 108 % of control | [4] 97 % of control

CS(=O)(=O)Oc1cccc(C(F)(F)F)c1
inactive: [13] 107 % of control | dose: 200.0 mg/kg/injection, schedule: Q01DX001 (ip), vehicle: carboxymethylcellulose (CMC) 95 % of control | [14] 98 % of control

COc1cc(CNC(=O)/C(C)=C/Cl)ccc1O
inactive: dose: 12.5 mg/kg/injection, schedule: Q04DX003 (ip), vehicle: saline with Tween-80 96 % of control | dose: 25.0 mg/kg/injection, schedule: Q04DX003 (ip), vehicle: saline with Tween-80 96 % of control | dose: 50.0 mg/kg/injection, schedule: Q04DX003 (ip), vehicle: saline with Tween-80 103 % of control

C=CCN(CC=C)C(=O)c1cc(Cl)ccc1Cl
inactive: dose: 100.0 mg/kg/injection, schedule: Q04DX002 (ip), vehicle: saline with Tween-80 97 % of control | dose: 200.0 mg/kg/injection, schedule: Q04DX002 (ip), vehicle: saline with Tween-80 103 % of control | dose: 400.0 mg/kg/injection, schedule: Q04DX002 (ip), vehicle: saline with Tween-80 110 % of control

CC(C)C(=O)CC(=O)C(C)C.CC(C)C(=O)CC(=O)C(C)C.[Cu]
inactive: dose: 12.0 mg/kg/injection, schedule: Q01DX001 (ip), vehicle: saline 93 % of control | dose: 12.0 mg/kg/injection, schedule: Q04DX003 (ip), vehicle: saline 90 % of control | dose: 25.0 mg/kg/injection, schedule: Q01DX001 (ip), vehicle: saline 98 % of control | [9] 98 % of control | [15] 98 % of control | [10] 96 % of control
